A short description of this data set: gradient 5% acetonitrile 3 min, to 50% in 2 min, to 85% in 15 min, held 3 min, 100 µL/min. To be noted: column: Zorbax Extend-C18 2.1 x 50 mm; eluents: water / acetonitrile, 0.1% formic acid. The method in brief: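 Pure standards were run in mixtures of ~100 molecules by HPLC coupled to a quadrupole time-of-flight mass spectrometer. The column was a Zorbax Extend-C18 (2.1 × 50 mm, 1.8 μm) at 100 μL/min, with water and acetonitrile each containing 0.1% formic acid, in positive and negative ionization mode. Dead and dwell volumes were 40 μL and 900 μL. Retention time was taken from computationally picked adduct peaks, each manually inspected, with data collected over 3 months.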
Consider `COCCOc1ccc2c(c1)ncn2-c1ccc2cccc(N3CCC(N)CC3)c2n1`, for which the RP-LC retention time came to 645 s.

The compound `O=C1OC2CC1N(C(=O)Cn1c(=O)oc3ccccc31)C2` (stereo not given) yielded an RP-LC retention time of 618 s.

`O=C(Cn1nc2n(c1=O)CCCC2)Nc1ccccc1` had an RP-LC retention time of 633 s.

`CCN1CCCn2cc(S(=O)(=O)N3CCOCC3)cc2C1=O` registered an RP-LC retention time of 614 s.

For `Cc1sc2cc(C(=O)O)[nH]c2c1C(=O)N1CCOCC1`, the RP-LC retention time is 622 s.

Turning to `O=C([C@@H]1C[C@H](F)CN1S(=O)(=O)c1ccc(F)c(Cl)c1)N1CCCCC1`, the RP-LC retention time was 875 s.

In turn, `COC(=O)c1ccccc1OCc1cc(=O)oc2ccc(C)cc12` came in with an RP-LC retention time of 983 s.

`Cc1ccc(-c2nc(-c3ccc4nncn4c3)no2)cc1F` came in with an RP-LC retention time of 764 s.

As for `O=C1NCCCc2c1oc1ccc(O)cc21`, the RP-LC retention time is 567 s.

`CCOc1ccc(-c2ccc3nnc(SCC(=O)Nc4nc(C)cs4)n3n2)cc1` returned an RP-LC retention time of 752 s.

`Cc1nn(C)c2nc(OC(C)C(=O)NCc3ccc(F)cc3)cc(C(F)(F)F)c12` (stereo not given) displayed an RP-LC retention time of 960 s.

`O=c1c(NC2CCCCC2)nc2ccncc2n1Cc1ccccc1`: the RP-LC retention time was 745 s.

`COc1ccc(C(=O)N2CCCn3nc(-c4cccs4)cc3C2)c(OC)c1` showed an RP-LC retention time of 798 s.

In turn, `COc1ccc(NC(=O)Cn2c(=O)c(CCC(=O)NCC(C)C)nc3ccccc32)c(OC)c1` gave an RP-LC retention time of 780 s.

For `CCc1cccc(NC(=O)N2[C@H]3CC[C@@H]2c2cncnc2C3)c1`, the RP-LC retention time is 741 s.

`COc1cccc(N2CCN(S(=O)(=O)c3cc(-c4cc(C(F)(F)F)on4)sc3C)CC2)c1`: the RP-LC retention time amounted to 1260 s.

For the compound `O=C(NC1CCCCC1)C1CCCN(c2nc3ccsc3c(=O)n2Cc2ccccc2)C1` (stereo not given), the RP-LC retention time came to 957 s.

In turn, `Cc1noc(C)c1Cc1ccc(C(=O)NCC23CCCC=C2NC(=O)CC3)o1` (stereo not given) yielded an RP-LC retention time of 705 s.

`CCOc1ccc(N2CCCCn3c2nc2c3c(=O)n(CC(C)C)c(=O)n2C)cc1`: the RP-LC retention time was 1110 s.

Compound `O=C(c1cn(-c2cc(Nc3ccccc3)ncn2)cn1)N1CCOCC1` had an RP-LC retention time of 676 s.

In turn, `CCN1CCCn2cc(S(=O)(=O)Nc3cc(OC)ccc3OC)cc2C1=O` gave an RP-LC retention time of 704 s.

Turning to `COc1ccc(NS(=O)(=O)c2ccc(-c3nnc(C4CCC4)o3)o2)cc1Cl`, the RP-LC retention time was 936 s.

As for `CC(C)NC(=O)c1ccc(-c2ccsc2)nc1`, the RP-LC retention time amounted to 736 s.

The compound `O=C(c1ccc(Cl)c(N2C(=O)CCS2(=O)=O)c1)N1CCN(c2ncccn2)CC1` showed an RP-LC retention time of 641 s.

In the case of `Cc1ccc(S(=O)(=O)N2CCCC(Cn3c(C4CC4)nc4cccnc43)C2)cc1` (stereo not given), the RP-LC retention time came out at 790 s.

For `COc1ccc(CNC(=O)CN2C(=O)NC3(CCCCC3)C2=O)cc1`, the RP-LC retention time was found to be 719 s.

Compound `Cc1cc(NC(=O)c2cc3c(=O)n(CC(C)C)ccc3n2C)ccc1Br` showed an RP-LC retention time of 1030 s.

In turn, `Cc1nc(N2CCN(c3ccccn3)CC2)c2c(C)c(C(=O)Nc3cc(F)ccc3C)sc2n1` gave an RP-LC retention time of 733 s.

The compound `Cc1ccc(-n2cc(C3=CCN(CC(=O)N4CCN(c5ccccn5)CC4)CC3)cn2)cc1` returned an RP-LC retention time of 584 s.

The compound `O=C(Nc1nc(-c2ccc([N+](=O)[O-])cc2)cs1)c1ccc2ncsc2c1` came in with an RP-LC retention time of 892 s.

In the case of `CN1CCN(S(=O)(=O)c2ccc(C#N)cc2)CC1c1ccccc1` (stereo not given), the RP-LC retention time was 528 s.

For the compound `CCN1c2ccc(F)cc2C(=O)NC12CCN(C(=O)c1ccc(C)cc1C)CC2`, the RP-LC retention time is 861 s.

`CC(=O)N(C)CCc1noc(C2CN(C(=O)c3c(C)noc3C)C2)n1` came in with an RP-LC retention time of 595 s.

Consider `CCc1ccc(S(=O)(=O)N2CCc3c(c(-c4nc(C5CC5)no4)nn3C)C2)cc1`, for which the RP-LC retention time worked out at 1020 s.

In turn, `CC(=O)N1CCc2cc(C)c(S(=O)(=O)N3CCOCC3)cc21` yielded an RP-LC retention time of 708 s.

`Cc1cccc(-c2noc(Cn3c(=O)n(-c4cccc(F)c4)c(=O)c4sccc43)n2)c1` returned an RP-LC retention time of 1030 s.

`O=C(NC1CCCC1)c1cccnc1N1CCSCC1` had an RP-LC retention time of 735 s.

With `Cc1cc(C)cc(N2CCC(NC(=O)Cc3ccsc3)C2=O)c1` (stereo not given), the RP-LC retention time amounted to 637 s.

In the case of `CO[C@H]1C(=O)N(C(C)C)[C@H]1C1CCN(C(=O)c2ccsc2)CC1`, the RP-LC retention time turned out to be 693 s.

Take `CCOc1ccc(NC(=O)NCC(c2cccnc2)c2c[nH]c3ccccc23)cc1` (stereo not given): the RP-LC retention time worked out at 670 s.

The compound `COc1ccc(-c2nc3c(s2)CN(C(=O)Nc2ccccc2OC)CC3)cc1` registered an RP-LC retention time of 943 s.

For `O=C1CSc2ccc(S(=O)(=O)N3CCC(C(=O)NC4CC4)CC3)cc2N1`, the RP-LC retention time stood at 662 s.

As for `CCC(=O)n1nc(-c2ccccc2Cl)nc1N`, the RP-LC retention time worked out at 837 s.

In turn, `O=C(Cn1ccnc1-c1ccnc(N2CCCC2)c1)NCc1ccc(Cl)cc1` showed an RP-LC retention time of 601 s.

The compound `Cc1ccc(Nc2c(-c3cccc(Br)c3)nc3ccc(Cl)cn23)cc1` had an RP-LC retention time of 1130 s.

Regarding `CCN(CC)c1ncc2c(n1)CCC(C(=O)Nc1ccc(OC)cc1C)C2` (stereo not given), the RP-LC retention time was found to be 674 s.

The compound `COc1ccc(-c2nc(C)cc3nn(CC(=O)Nc4ccc(C)c(C)c4)c(=O)n23)cc1` gave an RP-LC retention time of 895 s.

`Cc1ccc(CN2CCC3(CC2)CC(O)(c2ccccn2)CCO3)o1` (stereo not given): the RP-LC retention time is 595 s.

Regarding `O=C(c1ccccn1)N1CCCC1c1nc(-c2ccc(F)cc2F)no1` (stereo not given), the RP-LC retention time came to 832 s.

`Cc1nnc(-c2cn(CC(=O)Nc3ccc(Cl)cc3)c3ccccc23)o1` showed an RP-LC retention time of 856 s.

In turn, `COc1ccc(OC)c(NC(=O)c2cc(C)n3nc(-c4ccco4)cc3n2)c1` yielded an RP-LC retention time of 1160 s.

In turn, `CCOC(=O)N1CCN(C(=O)CSc2ccc(-c3sc(C)nc3C)nn2)CC1` came in with an RP-LC retention time of 632 s.

For the compound `C=Cc1ccc(Cn2nc(-c3nc(-c4ccc(F)cc4)no3)ccc2=O)cc1`, the RP-LC retention time came out at 1200 s.

For `O=C(Nc1ccccc1F)N1CCC(n2cnc3c(Cl)cccc3c2=O)CC1`, the RP-LC retention time was 828 s.

For the compound `Cn1nccc1C(=O)N1CCc2c([nH]c3ccccc23)C1c1ccc(F)cc1` (stereo not given), the RP-LC retention time was 995 s.

In turn, `CCOC(=O)c1cc([N+](=O)[O-])sc1NC(=O)CC` returned an RP-LC retention time of 915 s.

Consider `O=C(Cc1ccc(Cl)cc1)N1CCC2(C1)C(=O)Nc1ccccc12` (stereo not given), for which the RP-LC retention time was 758 s.

For the compound `CN1CCN(C(CNS(=O)(=O)c2cc(F)ccc2F)c2cccn2C)CC1` (stereo not given), the RP-LC retention time was 580 s.

In turn, `CC1CCN(c2cc(-n3cnc(C(=O)NC4CCCCC4)c3)ncn2)CC1` returned an RP-LC retention time of 1030 s.

Turning to `CCN1C(=O)Cc2ccccc2C1C(=O)N(C)Cc1ccco1` (stereo not given), the RP-LC retention time worked out at 732 s.

`O=C(Nc1ccc(CN2CCCCC2)cc1)C1CCCN(c2ncnc3c2nc2n3CCCCC2)C1` (stereo not given): the RP-LC retention time came out at 1050 s.

In turn, `CCS(=O)(=O)N1CCCc2cc(C(=O)NC(C)(C)C)ccc21` returned an RP-LC retention time of 826 s.

The compound `Fc1ccc(C2Cn3nnc(-c4nc(-c5ccncc5)no4)c3CO2)cc1` (stereo not given) gave an RP-LC retention time of 912 s.

Compound `CCOC(=O)c1cccc(NC(=O)CN2C(=O)C(C)(C)c3ccccc32)c1` had an RP-LC retention time of 900 s.

In turn, `CC(C)N1C(=O)c2cccnc2Sc2cc(NC(=O)C3CCCCC3)ccc21` had an RP-LC retention time of 920 s.

On to `O=C(NCc1ccccc1)c1ccc2ccnc(N3CCN(C(=O)c4ccco4)CC3)c2c1`, for which the RP-LC retention time was 673 s.

As for `Cc1ccc(NC(=O)C2CCN(S(=O)(=O)c3ccc4c(c3)NC(=O)CO4)CC2)c(C)c1`, the RP-LC retention time worked out at 732 s.

Turning to `Cc1[nH]c(C(=O)N2CCCC(C(=O)NCCCN3CCOCC3)C2)c(C)c1C(=O)OC(C)C` (stereo not given), the RP-LC retention time came to 608 s.

As for `COc1cccc(CNC(=O)COc2ccc(NC(=O)C3CC3)cn2)c1OC`, the RP-LC retention time worked out at 591 s.

Compound `CCOCCCNC(=O)Cn1c(-c2cccs2)cc2cc(F)ccc21` registered an RP-LC retention time of 946 s.

For `CC(C)(C)c1ccc(C(CNC(=O)c2cc(-c3ccc4c(c3)OCCO4)on2)N2CCCC2)cc1` (stereo not given), the RP-LC retention time came out at 844 s.

Turning to `CCCS(=O)(=O)N1CCC2(CC1)c1[nH]c3ccccc3c1CCN2C`, the RP-LC retention time is 659 s.

Take `C[C@H]1CN(C(=O)c2nn(C)c3ccccc23)C[C@@H]1c1nc(-c2cccnc2)no1`: the RP-LC retention time came to 862 s.

`COC[C@@H]1OCCN(S(=O)(=O)c2cc(OC)ccc2OC)[C@H]1c1ccccc1`: the RP-LC retention time amounted to 896 s.

Take `CN(CC1CCCO1)S(=O)(=O)c1ccc(C(=O)Nc2ccc3sccc3c2)cc1` (stereo not given): the RP-LC retention time worked out at 891 s.

Compound `CCN1CCCn2cc(S(=O)(=O)NCc3ccc(Cl)cc3)cc2C1=O` showed an RP-LC retention time of 767 s.

On to `COCCn1cc(C(=O)NCc2c(F)cccc2F)c2nn(-c3ccccc3)c(=O)c-2c1`, for which the RP-LC retention time came to 809 s.

Compound `O=C1COc2ccc(S(=O)(=O)N3CCC(C(=O)NC4CCCc5ccccc54)CC3)cc2N1` (stereo not given) displayed an RP-LC retention time of 814 s.

In the case of `Cc1cccc(-c2noc(-c3nn(-c4cccc(F)c4)ccc3=O)n2)c1`, the RP-LC retention time turned out to be 928 s.

`COCCN1C(=O)Cc2ccccc2C1C(=O)NCc1ccco1` (stereo not given) gave an RP-LC retention time of 676 s.

These data come from the METLIN SMRT retention time set (Domingo-Almenara et al. 2019).
